Literature values in paper PMC6743424, “Phenolic acid phenethylesters and their corresponding ketones: Inhibition of 5‐lipoxygenase and stability in human blood and HepaRG cells” (Pharmacology Research & Perspectives, 2019).

Experiments:
[1] = set-up: method as in PMID 17394337, PMID 15358316, PMID 19544289; details: oral administration to rats; cited from earlier work
5‐LO = target: T1, 5‐LO (Homo sapiens, UniProt P09917); set-up: endogenous in cells; host or cells: human polymorphonuclear leukocytes isolated from heparinized blood; method as in PMID 22347509, PMID 28680195; details: read-out: IC50 of LT biosynthesis in isolated human neutrophils; cited from earlier work
T1 sequence (P09917 1-674): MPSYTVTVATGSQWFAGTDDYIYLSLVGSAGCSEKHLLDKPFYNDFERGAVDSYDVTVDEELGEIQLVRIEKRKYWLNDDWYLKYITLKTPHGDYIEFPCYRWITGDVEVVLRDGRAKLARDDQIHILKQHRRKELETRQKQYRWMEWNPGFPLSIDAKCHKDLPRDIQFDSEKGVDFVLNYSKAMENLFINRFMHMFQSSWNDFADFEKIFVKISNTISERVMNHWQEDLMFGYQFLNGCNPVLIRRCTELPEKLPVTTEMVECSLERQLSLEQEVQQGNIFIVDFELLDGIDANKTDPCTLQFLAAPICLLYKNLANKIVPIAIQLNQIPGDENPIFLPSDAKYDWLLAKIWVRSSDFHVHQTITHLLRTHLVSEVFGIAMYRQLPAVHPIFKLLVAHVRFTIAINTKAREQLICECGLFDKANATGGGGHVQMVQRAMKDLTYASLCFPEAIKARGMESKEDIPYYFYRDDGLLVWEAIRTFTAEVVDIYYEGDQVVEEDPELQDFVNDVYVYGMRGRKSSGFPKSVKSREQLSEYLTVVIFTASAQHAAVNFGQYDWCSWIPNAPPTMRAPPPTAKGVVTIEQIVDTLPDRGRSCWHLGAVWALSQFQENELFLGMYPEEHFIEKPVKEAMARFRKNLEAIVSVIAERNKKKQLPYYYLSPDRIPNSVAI

SMILES: O=C(/C=C/c1ccc(O)c(O)c1)OCCc1ccccc1 [CAPE (2), caffeic acid phenethyl ester, reference compound]
- Major metabolite in urine [1]: caffeic acid
- IC50 (5‐LO): 500 nM
